Drawing on US8906917B2, “Pyrimidine cyclohexyl glucocorticoid receptor modulators” (Corcept Therapeutics, Inc., priority 2011, dated 2014), this text covers Ki for seven compounds.

For test [1], the target named is T1, Human Recombinant Glucocorticoid Receptor (Homo sapiens, UniProt P04150).
T1 construct: This GR was a full-length steroid hormone receptor; host or cells: recombinant baculovirus-infected insect cells
T1 sequence (P04150 1-777): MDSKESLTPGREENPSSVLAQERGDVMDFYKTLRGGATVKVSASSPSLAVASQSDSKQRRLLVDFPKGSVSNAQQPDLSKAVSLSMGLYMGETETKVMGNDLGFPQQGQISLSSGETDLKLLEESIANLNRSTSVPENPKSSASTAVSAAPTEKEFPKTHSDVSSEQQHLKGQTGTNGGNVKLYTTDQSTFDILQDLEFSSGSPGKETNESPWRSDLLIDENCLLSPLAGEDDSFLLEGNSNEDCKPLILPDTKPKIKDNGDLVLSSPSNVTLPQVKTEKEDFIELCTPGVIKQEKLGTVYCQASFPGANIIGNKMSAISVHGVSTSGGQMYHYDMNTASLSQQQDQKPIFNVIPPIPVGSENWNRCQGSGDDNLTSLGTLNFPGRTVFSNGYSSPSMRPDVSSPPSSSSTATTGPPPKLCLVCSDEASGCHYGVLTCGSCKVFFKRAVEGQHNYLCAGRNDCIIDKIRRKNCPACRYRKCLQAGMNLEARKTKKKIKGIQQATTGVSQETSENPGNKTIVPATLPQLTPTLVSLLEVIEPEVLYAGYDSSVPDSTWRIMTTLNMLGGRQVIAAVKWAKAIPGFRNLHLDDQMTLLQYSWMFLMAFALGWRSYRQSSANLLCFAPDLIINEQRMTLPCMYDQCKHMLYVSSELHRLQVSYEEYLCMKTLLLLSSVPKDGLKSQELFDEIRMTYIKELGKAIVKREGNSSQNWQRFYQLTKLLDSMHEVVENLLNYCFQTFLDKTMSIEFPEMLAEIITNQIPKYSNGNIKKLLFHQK
Put plainly: Glucocorticoid receptor binding displacement assay with 3H-dexamethasone. To be noted: displacement of 2.5 nM 3H-dexamethasone, 2.5 hrs at 4° C.; Ki from IC50 by Cheng-Prusoff; read-out: GR Binding Ki. On the procedure:
Binding protocol: Compounds were tested in a binding displacement assay using human recombinant glucocorticoid receptor with ^3H-dexamethasone as the ligand. The source of the receptor was recombinant baculovirus-infected insect cells. This GR was a full-length steroid hormone receptor likely to be associated with heat-shock and other endogenous proteins.
For the IC50 determinations, test compounds were tested at 6 concentrations in duplicate. Test compounds were diluted from 10 mM stock in 100% DMSO. The tested solutions were prepared at 2× final assay concentration in 2% DMSO/assay buffer.
All reagents and the assay plate were kept on ice during the addition of reagents. The reagents were added to wells of a v-bottomed polypropylene plate in the following order: 25 μl of 10 nM 3H-dexamethasone solution, 50 μl of TB/NSB/compound solution and 25 μl of 2 nM GR solution. After the additions, the incubation mixture was mixed and incubated for 2.5 hrs at 4° C.
Alter 2.5 hrs incubation, unbound counts were removed with dextran coated charcoal (DCC) as follows: 15 μl of DCC solution (10% DCC in assay buffer) was added to all wells and mixed (total volume 115 μl). The plate was centrifuged at 4000 rpm for 10 minutes at 4° C. 75 μl of the supernatants was carefully pipetted into an optiplate. 150 μl of scintillation cocktail were added (Microscint-40, Perkin Elmer). The plate was vigorously shaken for approx. 10 minutes and counted on Topcount.
The IC50 values were converted to Ki (the inhibition constant) using the Cheng-Prusoff equation.
Reagents: Assay buffer: 10 mM potassium phosphate buffer pH 7.6 containing 5 mM DTT, 10 mM sodium molybdate, 100 μM EDTA and 0.1% BSA.

The target of test [2] is T2, glucocorticoid receptors (endogenous) in SW1353/MMTV-5 cells (Homo sapiens, UniProt P04150).
T2 construct: contains endogenous glucocorticoid receptors; endogenous in cells; host or cells: SW1353/MMTV-5 (human chondrosarcoma, stably transfected with pMAMneo-Luc reporter)
T2 sequence (P04150 1-777): T1 sequence (P04150 1-777)
The test can be described thus: GR functional assay using SW1353/MMTV-5 cells (MMTV-GRE luciferase reporter). In kind it is cell-based. On the procedure: SW1353/MMTV-5 is an adherent human chondrosarcoma cell line that contains endogenous glucocorticoid receptors. It was transacted with a plasmid (pMAMneo-Luc) encoding firefly luciferase located behind a glucocorticoid-responsive element (GRE) derived from a viral promoter (long terminal repeat of mouse mammary tumor virus). A stable cell line SW1353/MMTV-5 was selected with geneticin, which was required to maintain this plasmid.
SW1353/MMTV-5 cells were distributed in 96-well plates and incubated in medium (without geneticin) for 24 hrs.

Molecules are shown by their SMILES.

`Cn1c(=O)[nH]c([C@H]2CC[C@H](c3ccccc3)CC2)c(Cc2ccccc2)c1=O` [Compound 13h]: the inhibition constant (Ki) in test [1] is over 10 nM; in test [2], 50 to 100 nM.
On the same counts, the results for `O=c1[nH]c(=O)c(Cc2cccc(C(F)(F)F)n2)c([C@H]2CC[C@H](c3ccccc3)CC2)[nH]1` [Compound 3l] are 5 to 10 nM and under 50 nM.
On the same counts, the results for `O=c1[nH]c(=O)c(Cc2ccc(Cl)cc2Cl)c([C@H]2CC[C@H](c3ccccc3)CC2)[nH]1` [Compound 3f] are 5 to 10 nM and under 50 nM.
For the compound `O=c1[nH]c(=O)c(Cc2ccccc2)c([C@H]2CC[C@H](c3ccccc3)CC2)[nH]1` [Compound 3a, (E)-5-Benzyl-6-(4-phenylcyclohexyl)-1H-pyrimidine-2,4-dione], the inhibitory constant (Ki) in test [1] is under 5 nM; in test [2], under 50 nM.
On the same counts, the results for `Cc1cccc(Cc2c(=O)n(CCN(C)C)c(=O)[nH]c2[C@H]2CC[C@H](c3ccccc3)CC2)c1` [Compound 13b] are over 10 nM and over 100 nM.
For `O=c1[nH]c(=O)c(Cc2ccc(F)cc2Cl)c([C@H]2CC[C@H](c3ccccc3)CC2)[nH]1` [Compound 3x] the same measures were over 10 nM and under 50 nM.
On the same counts, the results for `O=c1[nH]c(=O)c(Cc2cc(Cl)ccc2Cl)c([C@H]2CC[C@H](c3ccccc3)CC2)[nH]1` [Compound 3g] are under 5 nM and under 50 nM.
